This is an account of results in article PMC12472577, “Trimetazidine–Profen Hybrid Molecules: Synthesis, Chemical Characterization, and Biological Evaluation of Their Racemates” (Pharmaceuticals, 2025).

Data set [1] in a line: Lipophilicity as RM values by reversed-phase thin-layer chromatography (RP-TLC). It counts as physicochemical. The procedure: In this study, the lipophilicity of the synthesized trimetazidine–profen derivatives was evaluated using a practical and widely applied technique—reversed-phase thin-layer chromatography (RP-TLC)—following the methodology outlined by Pontiki and Hadjipavlou-Litina.
The lipophilicity of the trimetazidine–profen derivatives was determined following the procedure described by Pontiki and Hadjipavlou-Litina.

A short description of data set [2]: Hydroxyl radical scavenging activity (HRSA), Fenton reaction / 1,10-phenanthroline. It counts as biochemical. The settings on record: IC50 ± SD, triplicate; 60 min at 37 °C, pH 7.40. The procedure: The hydroxyl radical-scavenging activity of the samples was measured according to the method of Luo et al.. In this system, hydroxyl radicals were generated by the Fenton reaction. Hydroxyl radicals could oxidize Fe^2+ into Fe^3+, and only Fe^2+ could be combined with 1,10-phenanthroline to form a red compound (1,10-phenanthroline-Fe^2+) with a maximum absorbance at 536 nm. The concentration of the hydroxyl radical was reflected by the degree of decolorization of the reaction solution. In test tubes 1 mL of 1,10-phenanthroline solution (0.75 mM), 2.0 mL of phosphate buffer saline (0.2 M, pH 7.40), and 1 mL of the samples/standard were added and mixed homogeneously. A total of 1.0 mL of the FeSO4 solution (0.75 mM) was then pipetted into the mixture. The reaction was initiated by adding 1.0 mL H2O2 (0.03% v/v). After incubation at 37°C for 60 min in a water bath, the absorbance of the reaction mixture was measured at 536 nm against reagent blank. The reaction mixture without any antioxidant was used as the negative control, and without H2O2 was used as the blank. The hydroxyl radical scavenging activity (HRSA) was calculated by the following formula:(2) I,%(HRSA)=AS−An/Ab−An×100 where As, An, and Ab were the absorbance values determined at 536 nm of the sample, the negative control, and the blank after reaction, respectively.

A short description of data set [3]: Acute rat toxicity prediction using GUSAR software. An excerpt:
Given the potential toxicity concerns associated with both trimetazidine and profens, including rare gastrointestinal, hepatic, renal, and central nervous system effects, we evaluated the acute toxicity of the newly synthesized trimetazidine–profen hybrid molecules.
GUSAR software was developed to generate QSAR/QSPR models using appropriate training datasets. It enables an in silico prediction of LD50 values in rats for four routes of administration: oral, intravenous, intraperitoneal, and subcutaneous.
We employed the software to perform quantitative in silico predictions of the LD50 values for the synthesized trimetazidine–profen hybrids 3a–e.

The target of the next data set is T1, human albumin (Homo sapiens, UniProt P02768).
T1 construct: purchased BB-NCIPD Ltd., Sofia, Bulgaria
T1 sequence (P02768 25-609): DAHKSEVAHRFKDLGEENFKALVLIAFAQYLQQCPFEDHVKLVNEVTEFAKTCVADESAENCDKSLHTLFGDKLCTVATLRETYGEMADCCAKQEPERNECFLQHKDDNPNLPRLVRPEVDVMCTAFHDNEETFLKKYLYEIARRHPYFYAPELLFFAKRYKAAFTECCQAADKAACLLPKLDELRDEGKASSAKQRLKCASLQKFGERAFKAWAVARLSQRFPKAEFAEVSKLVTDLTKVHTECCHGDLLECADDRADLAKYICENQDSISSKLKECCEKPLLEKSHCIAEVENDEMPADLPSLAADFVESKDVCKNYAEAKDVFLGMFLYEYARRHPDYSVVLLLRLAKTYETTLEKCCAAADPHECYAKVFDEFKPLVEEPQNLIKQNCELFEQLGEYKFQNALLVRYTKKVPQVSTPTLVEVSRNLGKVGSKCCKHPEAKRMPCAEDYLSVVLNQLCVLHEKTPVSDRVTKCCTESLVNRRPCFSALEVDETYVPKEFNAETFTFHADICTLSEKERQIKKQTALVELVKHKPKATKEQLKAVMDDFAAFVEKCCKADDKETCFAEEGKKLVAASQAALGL
In words: Inhibition of albumin denaturation (IAD). It counts as biochemical. The procedure:
The in vitro analysis of the anti-inflammatory activity was evaluated by measuring the inhibition of albumin denaturation (IAD). The analysis was carried out according to the method of Manolov et al. with minor modifications. The experiment was conducted using human albumin. A 1% albumin solution was prepared in distilled water at pH 7.4. Test samples and standards were initially dissolved in 1 mL of DMSO, then supplemented with 1% Tween 80 in PBS to achieve a final stock solution concentration of 1000 μg/mL. Subsequently, a series of working solutions at varying concentrations (20–500 μg/mL) in 1% Tween 80/PBS were prepared. The reaction mixture consisted of 2 mL of the test sample or standard at varying concentrations and 1 mL of 1% albumin. The mixture was incubated at 37 °C for 15 min, followed by heating at 70 °C for 15 min in a water bath. After cooling, the turbidity was measured at 660 nm using a spectrophotometer (CamSpec M508, Leeds, UK). Ibuprofen served as the standard. The experiment was conducted in triplicate. The percentage inhibition of albumin denaturation (IAD) was calculated against the control. The control sample consisted of albumin at the same concentration dissolved in distilled water.(3) %IAD=Ablank−Asample/Ablank×100

A short description of data set [4]: Hydrogen peroxide scavenging activity (HPSA). It counts as biochemical. The settings on record: IC50 ± SD, triplicate; 10 min at 37 °C, pH 7.4. The procedure: The Manolov et al. approach was used to evaluate a capacity to scavenge hydrogen peroxide. A 43 mM solution of H2O2 was prepared in a potassium phosphate buffer solution (0.2 M, pH 7.4). The analysis of the samples was carried out as follows: in test tubes, 0.6 mL H2O2 (43 mM), 1 mL sample/standard with different concentrations (20–1000 µg/mL), and 2.4 mL potassium phosphate buffer solution were mixed. The mixture was stirred and incubated in the dark for 10 min at 37 °C. Absorbance was measured at 230 nm with a spectrophotometer (CamSpec M508, Leeds, UK) against a blank solution containing the phosphate buffer and H2O2 without the sample. […] The percentage HPSA of the samples was evaluated by comparing with a blank sample, and was calculated using the following formula:(1) I,%(HPSA)=Ablank−(ATS−ACS)/Ablank×100 where Ablank is the absorbance of the blank sample, ACS is the absorbance of the control sample, and ATS is the absorbance of the test sample.

[5] abbreviates: composite across IP, IV, oral, SC GUSAR predictions, lower = more toxic, read-out: geometric mean of the four LD50 values.

“And” between values parts separate entries of the source, which are not always exact repeats. Equal values may be shown once. Read-outs that look alike come from different tables or passages of the source.

In the case of `COc1ccc(CN2CCN(C(=O)C(C)c3ccc(CC(C)C)cc3)CC2)c(OC)c1OC` (stereo not drawn) [3a, 2-(4-isobutylphenyl)-1-(4-(2,3,4-trimethoxybenzyl)piperazin-1-yl)propan-1-one], in data set [1], the “RM ± SD” value is 1.68 ± 0.021 and 1.68. Further, in data set [2], the “HRSA IC50” value is 77.98 µg/mL. For the same compound, in data set [3] (setting [5]), the LD50 (commonly the dose at which mortality reaches 50%) was about 212 mg/kg. Moreover, at human albumin, the concentration for half-maximal inhibition (IC50) – broadly, the concentration needed to halve the response being measured – is 244 µM. In addition, in data set [4], the “HPSA IC50” value is given as 97.55 ± 1.21 µg/mL.

Consider `COc1ccc(CN2CCN(C(=O)C(C)c3cccc(C(=O)c4ccccc4)c3)CC2)c(OC)c1OC` (stereo not drawn) [3b, 2-(3-benzoylphenyl)-1-(4-(2,3,4-trimethoxybenzyl)piperazin-1-yl)propan-1-one], for which the “RM ± SD” value in data set [1] was 1.55 ± 0.015 and 1.55. In addition, in data set [2], the “HRSA IC50” value is 74.72 ± 0.41 µg/mL and 74.6 to 74.7 µg/mL. Besides, the median lethal dose (LD50) in data set [3] (setting [5]) is about 398 mg/kg. For the same compound, the midpoint of inhibition against human albumin, the IC50, lay at 234 µM. The “HPSA IC50” value in data set [4] was determined as 93.56 ± 1.29 µg/mL.

On to `COc1ccc2cc(C(C)C(=O)N3CCN(Cc4ccc(OC)c(OC)c4OC)CC3)ccc2c1` (stereo not drawn) [3c, 2-(6-methoxynaphthalen-2-yl)-1-(4-(2,3,4-trimethoxybenzyl)piperazin-1-yl)propan-1-one], for which the “RM ± SD” value in data set [1] is 1.61 ± 0.020 and 1.61. In data set [2], the “HRSA IC50” value is 71.13 µg/mL. Further, the 50% lethal dose (LD50) in data set [3] (setting [5]) is about 391 mg/kg. For the same compound, half-maximal inhibition against human albumin (IC50) was put at 227 µM. In data set [4], the “HPSA IC50” value is on record as 93.07 ± 0.43 µg/mL.

As for `COc1ccc(CN2CCN(C(=O)C(C)c3ccc(-c4ccccc4)c(F)c3)CC2)c(OC)c1OC` (stereo not drawn) [3d, 2-(2-fluoro-[1,1’-biphenyl]-4-yl)-1-(4-(2,3,4-trimethoxybenzyl)piperazin-1-yl)propan-1-one], the “RM ± SD” value in data set [1] was 1.45 ± 0.008 and 1.45. The “HRSA IC50” value in data set [2] is 74.59 ± 1.02 µg/mL and 74.6 to 74.7 µg/mL. The LD50 in data set [3] (setting [5]) was about 287 mg/kg. At human albumin, this compound gave an IC50 of 235 µM. For the same compound, the “HPSA IC50” value in data set [4] was 135.25 ± 13.19 µg/mL.

For the compound `COc1ccc(CN2CCN(C(=O)C(C)c3ccc4c(c3)[nH]c3ccc(Cl)cc34)CC2)c(OC)c1OC` (stereo not drawn) [3e, 2-(6-chloro-9H-carbazol-2-yl)-1-(4-(2,3,4-trimethoxybenzyl)piperazin-1-yl)propan-1-one], in data set [1], the “RM ± SD” value is 1.55 ± 0.016 and 1.55. Moreover, the “HRSA IC50” value in data set [2] worked out at 92.56 µg/mL. The median lethal dose (LD50) in data set [3] (setting [5]) is about 369 mg/kg. The IC50 against human albumin was 225 µM. Besides, the “HPSA IC50” value in data set [4] amounted to 99.75 ± 0.75 µg/mL.

Regarding `CC(C)Cc1ccc(C(C)C(=O)O)cc1` (stereo not drawn) [Ibuprofen, reference compound], in data set [1], the “RM ± SD” value is given as 1.11 ± 0.01.

`COc1ccc(CN2CCNCC2)c(OC)c1OC` [compound 1, 1-[(2,3,4-trimethoxyphenyl)methyl]piperazine, reference compound]: in data set [3], the LD50 is about 246 mg/kg.
